In the experiment the test system is bisulfite-treated human genomic DNA (MINT1, RAR, THBS1, MINT31). The experiment in a line: PCR amplification of bisulfite-treated DNA. The note with it: 40 cycles (FIG. 12). The experiment is classed as biochemical. The procedure:
Using bisulfite-treated DNA as a template and various primers, the difference in PCR amplification was compared. For comparison, KOD mutant (Y7A/V93K) and KOD (wild-type), each mixed with 1 μg of a KOD antibody per U of the enzyme, and Taq DNA polymerase mixed with an antibody (a mixture of equal amounts of Taq DNA polymerase (produced by Toyobo Co. Ltd.) and Anti-Taq High (produced by Toyobo Co. Ltd.)) were used.
The bisulfite-treated DNA used was human genomic DNA (produced by Roche) that had been treated with a MethylCode Bisulfite Conversion Kit of Invitrogen.
For PCR with the KOD mutant (Y7A/V93K) and PCR with the KOD, a buffer, MgSO4, and dNTPs included in KOD-Plus-Ver. 2 (produced by Toyobo Co. Ltd.) were used. 50 μl of individual reaction solutions containing 1× PCR buffer, 1.5 mM MgSO4, dNTPs (dATP, dTTP, dCTP, dGTP) in an amount of 0.2 mM, primers (SEQ ID NOs: 42 and 43 for amplification of MINT1; SEQ ID NOs: 44 and 45for amplification of RAR; SEQ ID NOs: 46 and 47 for amplification of THBS1; SEQ ID NOs: 48 and 49 for amplification of MINT31) in an amount of 15 pmol, 1 μl of bisulfite-treated DNA extract, and 1 U of each respective enzyme mixed with the antibody were used. PCR was performed using a GeneAmp PCR system 9700 (Applied Biosystems) on the following schedule: preliminary reaction at 94° C. for 2 minutes, followed by 40 cycles, each cycle consisting of 98° C. for 10 seconds, 55° C. for 15 seconds, and 68° C. for 1 minute.
For PCR with the Taq DNA polymerase, 50 μl of a reaction solution containing 1× buffer included in Blend Taq (product of Toyobo), dNTPs (dATP, […], dCTP, dGTP) in an amount of 0.2 mM, primers in an amount of 15 pmol (the same as above), 1 μl of bisulfite-treated DNA extract, and 2.5 U of the enzyme mixed with the antibody was used. […]
After the completion of each individual reaction, each of the resulting reaction solutions was analyzed using a DNA-1000 kit for MultiNA (produced by Shimadzu Corporation) to confirm amplified DNA fragments.

The values below come from patent US20150218534A1, “MODIFIED DNA POLYMERASE” (TOYOBO CO., LTD., priority 2012, published 2015).

On to “KOD Y7A/V93K: modified KOD DNA polymerase with Y7A and V93K”, for which the “amplification of bisulfite-treated DNA” value is recorded as “stable amplification was confirmed”.
